Data published in patent US20230052740A1, “MODULATORS OF CIRCADIAN RHYTHMS AND USES THEREOF” (The Regents of the University of California, priority 2019, published 2023).
Like-named read-outs stand apart in the source and are kept apart here. Blank lines part the entries; values can stand above or below the molecule they belong to.

Key:
MT2 = biological target: T1, MT2 (Homo sapiens, UniProt P49286); assay: cAMP assay (GloSensor), isoproterenol-stimulated cAMP in HEK cells; type: cell-based; set-up: expressed in transfected cells; host or cells: HEK-T (HEK-293 T) cells, co-transfected with GloSensor DNA; MT2 activity: dose or concentration left out as unconfirmed; conditions: for Emax: read-out: MT2 % Emax (converted); for selectivity for MT2 over MT1: FIG. 7 analogs of '9032
T1 sequence (P49286 1-362): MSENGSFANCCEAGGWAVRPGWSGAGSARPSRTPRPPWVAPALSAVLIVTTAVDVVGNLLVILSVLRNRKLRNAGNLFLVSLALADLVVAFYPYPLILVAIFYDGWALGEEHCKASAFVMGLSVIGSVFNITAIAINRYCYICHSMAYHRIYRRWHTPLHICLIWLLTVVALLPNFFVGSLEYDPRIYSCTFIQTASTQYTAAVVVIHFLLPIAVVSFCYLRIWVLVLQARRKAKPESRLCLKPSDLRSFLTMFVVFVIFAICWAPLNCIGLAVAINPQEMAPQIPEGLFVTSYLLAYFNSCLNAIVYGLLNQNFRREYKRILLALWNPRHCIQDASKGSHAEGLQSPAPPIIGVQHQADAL
Procedure: MT1 and MT2 receptors were tested using Promega's spilt luciferase based GboSensor cAMP biosensor technology. HEK-T cells were plated in 15 cm cell culture dish (at a density of 18 million cells) containing DMEM composed of 10% dialyzed FBS, 2 mM L-glutamine, 100 units/ml penicillin G, 100 μg/ml streptomycin for 4-6 hour. Then, cells were co-transfected with 8 μg of construct which encodes either MT1 or MT2 (de-Tangonized constructs) and […] of Glosensor DNA. […] The next day, cell medium were discarded and loaded with 20 μl of assay buffer (1×HBSS, 20 mM HEPES, pH 7.4, 0.1% BSA). To measure agonist activity of MT1 or MT2 receptor, 10 μl of test compound solution at 3× final concentration was added for 15 minutes followed by addition of 10 μl of luciferin/isoproterenol mixture (at a final concentration of 4 mM and 200 nM respectively) for another 15 mins for luminescence quantification. Then, plates were counted using SpectraMax luminescence reader (Molecular Device). Data were analyzed using GraphPad Prism 6.0.

hMT1 = hMT1 (Homo sapiens, UniProt P48039); assay: as above; type: cell-based; set-up: expressed in transfected cells; host or cells: HEK-T (HEK-293 T) cells, co-transfected with GloSensor DNA
Procedure: HEK-293 T cells were maintained with complete Dulbecco's modified Eagle's medium (DMEM), which is composed of 10% fetal bovine serum (FBS), 2 mM L-glutamine, 100 units/ml penicillin G, 100 μg/ml streptomycin at 37° C. in the presence of 5% CO2
MT1 and MT2 receptors were tested using Promega's spilt luciferase based GboSensor cAMP biosensor technology. HEK-T cells were plated in 15 cm cell culture dish (at a density of 18 million cells) containing DMEM composed of 10% dialyzed FBS, 2 mM L-glutamine, 100 units/ml penicillin G, 100 μg/ml streptomycin for 4-6 hour. Then, cells were co-transfected with 8 μg of construct which encodes either MT1 or MT2 (de-Tangonized constructs) and […] of Glosensor DNA. Next day, transfected cells were seeded into poly-L-lysinecoated 384-well white clear bottom cell culture plates with complete DMEM with 1% dialized FBS at a density of 20,000 cells per well for another 24 h. The next day, cell medium were discarded and loaded with 20 μl of assay buffer (1×HBSS, 20 mM HEPES, pH 7.4, 0.1% BSA). To measure agonist activity of MT1 or MT2 receptor, 10 μl of test compound solution at 3× final concentration was added for 15 minutes followed by addition of 10 μl of luciferin/isoproterenol mixture (at a final concentration of 4 mM and 200 nM respectively) for another 15 mins for luminescence quantification. Then, plates were counted using SpectraMax luminescence reader (Molecular Device). Data were analyzed using GraphPad Prism 6.0.

[1] = HEK293, Table 1, agonist, normalized to melatonin response
[2] = HEK293, Table 2, agonist, normalized to melatonin response, read-out: MT1 % Emax (converted)
[3] = HEK293, Table 2, agonist, normalized to melatonin response
[4] = panel of widely-used MTR ligands, in words
[5] = Table 2, cell marked Inverse (inverse agonist)
[6] = HEK293, Table 1, agonist, normalized to melatonin response, read-out: MT1 % Emax (converted)
[7] = panel of widely-used MTR ligands

Sequence of hMT1 (P48039 whole entry): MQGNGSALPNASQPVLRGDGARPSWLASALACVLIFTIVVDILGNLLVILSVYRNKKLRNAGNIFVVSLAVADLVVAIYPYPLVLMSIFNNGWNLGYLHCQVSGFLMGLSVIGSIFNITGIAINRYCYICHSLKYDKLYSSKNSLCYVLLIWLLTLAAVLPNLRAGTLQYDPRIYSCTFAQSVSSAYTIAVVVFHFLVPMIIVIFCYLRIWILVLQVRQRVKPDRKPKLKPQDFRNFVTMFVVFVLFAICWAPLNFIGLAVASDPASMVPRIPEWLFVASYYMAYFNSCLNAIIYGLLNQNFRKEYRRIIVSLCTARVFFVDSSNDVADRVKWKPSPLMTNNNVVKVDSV

Emax (MT2; [1]): 75%
SMILES: Cc1cc(=O)n2ccn(CCc3ccc4c(c3)OC(F)(F)O4)c2n1 [ZINC664088238]

SMILES: COc1ccc(CN(C(=O)c2ccccc2F)c2ccncc2)cc1 [ZINC151192780]
Emax (hMT1; [2]): 54%
MT1 pEC50 (hMT1; Table 2, agonist): 5.18 ± 0.22
selectivity for MT2 over MT1 (MT2): 200 fold
Emax (MT2; [3]): 95%
MT2 pEC50 (MT2; Table 2, agonist): 7.13 ± 0.12

SMILES: COc1ccc(CN(C(=O)OC2CCC2)c2ccncc2)cc1 [ZINC497291360]
Emax (hMT1; [2]): 92%
MT1 pEC50 (hMT1; Table 2, agonist): 7.05 ± 0.10
selectivity for MT2 over MT1 (MT2): 2 fold
Emax (MT2; [3]): 75 ± 50.1%
MT2 pEC50 (MT2; Table 2, agonist): 7.48 ± 0.05

efficacy at the MT2 receptor (MT2; [4]): partial agonism
SMILES: CCCCC(=O)NCCc1c(Cc2ccccc2)[nH]c2ccccc12 [DH97, reference compound]

SMILES: COc1ccc(CN(C(=O)c2scc(C)c2Cl)c2ccncc2)cc1 [ZINC485552623]
MT1 activity (hMT1; FIG. 7D, in words): without detectable MT1 activity
Emax (MT2; [3]): 107%
MT2 pEC50 (MT2; Table 2, agonist): 5.80 ± 0.06

SMILES: Cc1nnc(-c2cccc(NCc3ccc(Cl)cc3)c2)[nH]1 [ZINC37781620]
Emax (hMT1; HEK293, Table 2, cell marked Inverse (inverse agonist), read-out: MT1 % Emax (converted)): 19%
MT1 pEC50 (hMT1; [5]): 7.90 ± 0.90
Emax (MT2; HEK293, Table 2, cell marked Inverse (inverse agonist)): 120%
MT2 pEC50 (MT2; [5]): 6.20 ± 0.10

SMILES: COc1ccc(CN(C)C(=O)c2cccc(OC(F)F)c2)cc1O [ZINC353044322]
Emax (hMT1; [6]): 87%
MT1 pEC50 (hMT1; Table 1, agonist): 5.48 ± 0.05
EC50 (hMT1; agonist, read-out: EC50 at MT1): 2 to 6 µM
MT2 activity (MT2): without detectable MT2 activity

SMILES: COC(=O)c1csc(CSc2nnc(C3CC3)[nH]2)c1 [ZINC713465976]
Emax (hMT1; [2]): 101%
MT1 pEC50 (hMT1; Table 2, agonist): 7.75 ± 0.22
Emax (MT2; [3]): 94%
MT2 pEC50 (MT2; Table 2, agonist): 8.23 ± 0.11

SMILES: COC(=O)c1cc(Cn2ccn3c(=O)cc(C)nc23)c(C)s1 [ZINC419113878]
Emax (hMT1; [6]): 84%
MT1 pEC50 (hMT1; Table 1, agonist): 5.20 ± 0.08
EC50 (hMT1; agonist, read-out: EC50 at MT1): 2 to 6 µM
MT2 activity (MT2): without detectable MT2 activity

SMILES: COc1cccc2c1CCN(C(=O)c1ccc(F)nc1)C2 [ZINC182731037]
Emax (hMT1; [6]): 82%
MT1 pEC50 (hMT1; Table 1, agonist): 5.30 ± 0.09
EC50 (hMT1; agonist, read-out: EC50 at MT1): 2 to 6 µM
MT2 activity (MT2): without detectable MT2 activity

type selectivity (MT2; [4]): little type selectivity
SMILES: CCC(=O)NC1CCc2cccc(OC)c2C1 (stereo not drawn) [Compound 8M-PDOT, reference compound]

MT2 selectivity (agonist) (MT2; [7]): 150 fold
SMILES: CCC(=O)NC1Cc2ccccc2C(c2ccccc2)C1 (stereo not drawn) [Compound 4P-PDOT, reference compound]

SMILES: COc1ccc(CNc2cccc(-c3nnc[nH]3)c2)cc1 [ZINC157665999]
Emax (hMT1; [6]): 63%
MT1 pEC50 (hMT1; Table 1, agonist): 4.89 ± 0.38
EC50 (hMT1; agonist, read-out: EC50 at MT1): 10 µM
Emax (MT2; HEK293, Table 1, cell marked Inverse (inverse agonist)): 90%
MT2 pEC50 (MT2; Table 1, cell marked Inverse (inverse agonist)): 7.29 ± 0.16
EC50 (MT2; inverse agonist, read-out: EC50 at MT2): 0.05 µM

SMILES: CC(=O)NCCc1c[nH]c2ccccc12 [N-acetyl tryptamine, reference compound]
MT2 selectivity (agonist) (MT2; [7]): 39 fold

SMILES: Cn1c(=O)oc2c(NCc3ccc(-c4cc[nH]n4)o3)cccc21 [ZINC433313647]
Emax (hMT1; [6]): 42%
MT1 pEC50 (hMT1; Table 1, agonist): 6.81 ± 0.32
Emax (MT2; [1]): 96%

SMILES: CN(Cc1ccc2c(c1)OCO2)c1ccnc(Cl)c1 [ZINC301472854]
Emax (hMT1; [6]): 95%
MT1 pEC50 (hMT1; Table 1, agonist): 6.03 ± 0.10
Emax (MT2; [1]): 88%

SMILES: CN(Cc1ccc2c(c1)OCO2)c1ccnc(Cl)c1 [ZINC223593565]
Emax (hMT1; [2]): 86%
Emax (MT2; [3]): 58%

Emax (hMT1; HEK293, Table 6, Inverse (inverse agonist), read-out: MT1 Emax): 47%
EC50 (hMT1; Table 6, Inverse (inverse agonist), read-out: MT1 pEC50 (converted)): 0.245 µM
SMILES: Cc1nc(-c2cccc(NCc3ncc(Cl)cc3Br)c2)n[nH]1 [Compound Z3668902489]
